Target: IDO1 (Homo sapiens, UniProt P14902)
Experiment: IDO1 Cellular Assay in HeLa Cells Stimulated with IFNγ
Format: cell-based
Conditions: about 48 hours, read-out: Hela IC50
Procedure: Biological Assays IDO1 Cellular Assay in HeLa Cells Stimulated with IFNγ
HeLa cells were cultured in complete HeLa culture medium (90% EMEM, 10% heat-inactivated fetal bovine serum) and expanded to about 1×10^9 cells. The cells were then collected and frozen down at 1×10^7 cells/vial in 1 mL frozen medium (90% complete HeLa culture medium, 10% DMSO).
Compounds to be tested were serially diluted in ten 3-fold steps in DMSO starting from 10 mM DMSO stocks in Echo low volume plate(s).
Frozen HeLa cells were thawed and transferred into HeLa assay medium (99% complete HeLa culture medium, 1% Pen/Strep) with 20 mL medium/vial of cells. The cells were spun down at 250 g in a table top centrifuge for 5 min and suspended in same volume of HeLa assay medium. The cells were then counted and adjusted to a density of 2×10^5 cells/mL in HeLa assay medium. Sterile L-tryptophan were added to the cells with final concentration of 300 uM L-tryptophan. A small aliquot (2 mL/plate) of HeLa cells were set aside and were not treated with IFNγ, to serve as the Max-E control.
HeLa cells with and without IFNγ were dispensed to the respective wells of 384-well assay plates containing the compounds. The plates were incubated for about 48 hours at a 37° C., 5% CO2 incubator. Afterwards, 12 μL of 0.5 M methyl isonipecotate in dimethyl sulfoxide were added into each well and the plates were sealed and incubated at 37° C. without CO2 overnight. The plates were centrifuged for 1 min at 200×g. The resulting fluorescence was measured in a Spectramax plate reader (Molecular Devices) with a 400 nm excitation filter and a 510 nm emission filter.
Potencies were calculated by […] least squares fit to the four parameter logistic IC50 equation.

IDO1, sequence (P14902 whole entry): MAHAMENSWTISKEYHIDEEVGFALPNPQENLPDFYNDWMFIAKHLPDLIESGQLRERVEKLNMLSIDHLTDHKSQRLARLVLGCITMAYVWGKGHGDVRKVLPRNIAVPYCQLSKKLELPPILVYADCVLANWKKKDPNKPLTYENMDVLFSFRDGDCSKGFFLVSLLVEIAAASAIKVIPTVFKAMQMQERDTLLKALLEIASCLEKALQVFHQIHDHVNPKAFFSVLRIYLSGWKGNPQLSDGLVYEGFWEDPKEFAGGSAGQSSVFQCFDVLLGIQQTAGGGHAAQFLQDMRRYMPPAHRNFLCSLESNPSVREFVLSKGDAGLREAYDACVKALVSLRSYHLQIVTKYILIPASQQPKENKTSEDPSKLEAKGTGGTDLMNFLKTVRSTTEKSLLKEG

| SMILES | IC50 |
| --- | --- |
| CC(NC(=O)c1ccc(F)cc1)c1ccc2c(n1)C(F)CCN2C(=O)C1CC1 (single isomer, unassigned) [Example 204, N-(1-(5-(cyclopropanecarbonyl)-8-fluoro-5,6,7,8-tetrahydro-1,5-naphthyridin-2-yl)ethyl)-4-fluorobenzamide] | 228 nM |
| CC(C(=O)Nc1ccc(F)cc1)c1ccc2c(c1)CCCN2Cc1cccc(Cl)c1 (single isomer, unassigned) [Example 226, 2-{1-[(3-chlorophenyl)methyl]-1,2,3,4-tetrahydroquinolin-6-yl}-N-(4-fluorophenyl)propanamide] | 43.6 nM |
| C[C@@H](NC(=O)c1ccc(Cl)cc1)c1ccc2c(n1)OCCN2C(=O)c1cccc(Cl)c1 (single isomer, unassigned) [Example 255, 4-Chloro-N-(1-(1-(3-chlorobenzoyl)-2,3-dihydro-1H-pyrido[2,3-b][1,4]oxazin-6-yl)ethyl)benzamide] | 74.6 nM |
| CC(C(=O)Nc1ccc(Cl)cc1)c1ccc2c(c1)CC(F)CN2C(=O)c1cccc(Cl)c1 (single isomer, unassigned) [Example 258, 2-(1-(3-chlorobenzoyl)-3-fluoro-1,2,3,4-tetrahydroquinolin-6-yl)-N-(4-chlorophenyl)propanamide] | 5.86 nM |
| O=C(Nc1ccc(F)cc1)C(c1ccc2c(n1)CCCN2C(=O)C1CC1)C1CC1 (single isomer, unassigned) [Example 261, 2-(5-(cyclopropanecarbonyl)-5,6,7,8-tetrahydro-1,5-naphthyridin-2-yl)-2-cyclopropyl-N-(4-fluorophenyl)acetamide] | 24 nM |
| O=C(Nc1ccc(F)cc1)C(c1ccc2c(n1)CCCN2C(=O)C1CC1)C1CC1 (single isomer, unassigned) [Example 262, 2-(5-(cyclopropanecarbonyl)-5,6,7,8-tetrahydro-1,5-naphthyridin-2-yl)-2-cyclopropyl-N-(4-fluorophenyl)acetamide] | 11 nM |
| CC(NC(=O)c1ccc(F)cc1)c1ccc2c(n1)CCCN2C(=O)C1(C)CCCCO1 (stereo in doubt) [Example 139, 4-fluoro-N-(1-{5-[(2S)-2-methyloxane-2-carbonyl]-5,6,7,8-tetrahydro-1,5-naphthyridin-2-yl}ethyl)benzamide] | 348 nM |
| CC(NC(=O)c1ccc(F)cc1)c1ccc2c(n1)CCCN2C(=O)C1(C)CCCCO1 (stereo in doubt) [Example 140, 4-fluoro-N-(1-{5-[(2R)-2-methyloxane-2-carbonyl]-5,6,7,8-tetrahydro-1,5-naphthyridin-2-yl}ethyl)benzamide] | 1620 nM |
| CCn1ccc(C(=O)N2CCCc3nc(C(C)NC(=O)c4ccc(F)cc4)ccc32)n1 (stereo in doubt) [Example 143, N-{(1R)-1-[5-(1-ethyl-1H-pyrazole-3-carbonyl)-5,6,7,8-tetrahydro-1,5-naphthyridin-2-yl]ethyl}-4-fluorobenzamide] | 11.5 nM |
| CC(NC(=O)c1ccc(F)cc1)c1ccc2c(n1)CCCN2C(=O)c1ccn(C2CC2)n1 (stereo in doubt) [Example 144, N-{(1R)-1-[5-(1-cyclopropyl-1H-pyrazole-3-carbonyl)-5,6,7,8-tetrahydro-1,5-naphthyridin-2-yl]ethyl}-4-fluorobenzamide] | 18.1 nM |
| CC(NC(=O)c1ccc(F)cc1)c1ccc2c(n1)CCCN2C(=O)C1CCOCC1 (stereo in doubt) [Example 146, 4-fluoro-N-{(1R)-1-[5-(oxane-4-carbonyl)-5,6,7,8-tetrahydro-1,5-naphthyridin-2-yl]ethyl}benzamide] | 35.5 nM |
| CC(C)CC(=O)N1CCCc2cc(CNC(=O)c3cccc(Cl)c3)ccc21 [Example 2, 3-chloro-N-{[1-(3-methylbutanoyl)-1,2,3,4-tetrahydroquinolin-6-yl]methyl}benzamide] | 103 nM |
| CC(C)CC(=O)N1CCCc2cc(CNC(=O)c3ccc(C(C)C)cc3)ccc21 [Example 3, N-{[1-(3-methylbutanoyl)-1,2,3,4-tetrahydroquinolin-6-yl]methyl}-4-(propan-2-yl)benzamide] | 209 nM |
| Cc1cc(C(=O)NCc2ccc3c(c2)CCCN3C(=O)CC(C)C)ccc1Cl [Example 4, 4-chloro-3-methyl-N-{[1-(3-methylbutanoyl)-1,2,3,4-tetrahydroquinolin-6-yl]methyl}benzamide] | 298 nM |
| Cc1ccc(C(=O)NCc2ccc3c(c2)CCCN3C(=O)CC(C)C)cc1 [Example 5, 4-methyl-N-{[1-(3-methylbutanoyl)-1,2,3,4-tetrahydroquinolin-6-yl]methyl}benzamide] | 77.9 nM |
| COc1ccc(C(=O)NCc2ccc3c(c2)CCCN3C(=O)CC(C)C)cc1 [Example 6, 4-methoxy-N-{[1-(3-methylbutanoyl)-1,2,3,4-tetrahydroquinolin-6-yl]methyl}benzamide] | 56.4 nM |
| CC(C)CC(=O)N1CCCc2cc(CNC(=O)c3ccc(C(F)(F)F)cc3)ccc21 [Example 7, N-{[1-(3-methylbutanoyl)-1,2,3,4-tetrahydroquinolin-6-yl]methyl}-4-(trifluoromethyl)benzamide] | 42.5 nM |

| SMILES | IC50 |
| --- | --- |
| CC(C)CC(=O)N1CCCc2cc(CNC(=O)c3ccc(Cl)c(Cl)c3)ccc21 [Example 8, 3,4-dichloro-N-{[1-(3-methylbutanoyl)-1,2,3,4-tetrahydroquinolin-6-yl]methyl}benzamide] | 276 nM |
| CC(C)CC(=O)N1CCCc2cc(CNC(=O)c3ccc(Cl)c(F)c3)ccc21 [Example 9, 4-chloro-3-fluoro-N-{[1-(3-methylbutanoyl)-1,2,3,4-tetrahydroquinolin-6-yl]methyl}benzamide] | 49.3 nM |
| CC(C)CC(=O)N1CCCc2cc(CNC(=O)c3ccc(F)c(F)c3)ccc21 [Example 10, 3,4-difluoro-N-{[1-(3-methylbutanoyl)-1,2,3,4-tetrahydroquinolin-6-yl]methyl}benzamide] | 161 nM |
| CC(C)CC(=O)N1CCCc2cc(CNC(=O)c3ccc(F)cc3)ccc21 [Example 11, 4-fluoro-N-{[1-(3-methylbutanoyl)-1,2,3,4-tetrahydroquinolin-6-yl]methyl}benzamide] | 41.4 nM |
| CC(C)CC(=O)N1CCCc2cc(CNC(=O)c3ccc(I)cc3)ccc21 [Example 12, 4-iodo-N-{[1-(3-methylbutanoyl)-1,2,3,4-tetrahydroquinolin-6-yl]methyl}benzamide] | 21.1 nM |
| CC(C)CC(=O)N1c2ccc(CNC(=O)c3ccc(Cl)cc3)cc2CCC1(C)C [Example 13, 4-chloro-N-{[2,2-dimethyl-1-(3-methylbutanoyl)-1,2,3,4-tetrahydroquinolin-6-yl]methyl}benzamide] | 98.6 nM |
| O=C(NCc1ccc2c(c1)CCCN2C(=O)OCc1ccccc1)c1ccc(Cl)cc1 [Example 15, benzyl 6-((4-chlorobenzamido)methyl)-3,4-dihydroquinoline-1(2H)-carboxylate] | 36.9 nM |
| O=C(NCc1ccc2c(c1)CCCN2C(=O)c1cccc(Cl)c1)c1cccc(Cl)c1 [Example 16, 3-chloro-N-((1-(3-chlorobenzoyl)-1,2,3,4-tetrahydroquinolin-6-yl)methyl)benzamide] | 118 nM |
| CC(C)CC(=O)NCc1ccc2c(c1)CCCN2C(=O)c1cccc(Cl)c1 [Example 17, N-{[1-(3-chlorobenzene-1-carbonyl)-1,2,3.4-tetrahydroquinolin-6-yl]methyl}-3-methylbutanamide] | 702 nM |
| CC(C)c1cc(C(=O)NCc2ccc3c(c2)CCCN3C(=O)c2cccc(Cl)c2)on1 [Example 18, N-{[1-(3-chlorobenzene-1-carbonyl)-1,2,3,4-tetrahydroquinolin-6-yl]methyl}-3-(propan-2-yl)-1,2-oxazole-5-carboxamide] | 186 nM |
| CC(C)n1cc(C(=O)NCc2ccc3c(c2)CCCN3C(=O)c2cccc(Cl)c2)cn1 [Example 19, N-{[1-(3-chlorobenzene-1-carbonyl)-1,2,3,4-tetrahydroquinolin-6-yl]methyl}-1-(propan-2-yl)-1H-pyrazole-4-carboxamide] | 435 nM |
| Cc1cc(C(=O)NCc2ccc3c(c2)CCCN3C(=O)c2cccc(Cl)c2)on1 [Example 20, N-{[1-(3-chlorobenzene-1-carbonyl)-1,2,3,4-tetrahydroquinolin-6-yl]methyl}-3-methyl-1,2-oxazole-5-carboxamide] | 59.6 nM |
| Cc1noc(C(=O)NCc2ccc3c(c2)CCCN3C(=O)c2cccc(Cl)c2)n1 [Example 21, N-{[1-(3-chlorobenzene-1-carbonyl)-1,2,3,4-tetrahydroquinolin-6-yl]methyl}-3-methyl-1,2,4-oxadiazole-5-carboxamide] | 40.5 nM |
| Cc1cc(C(=O)NCc2ccc3c(c2)CCCN3C(=O)c2cccc(Cl)c2)no1 [Example 22, N-{[1-(3-chlorobenzene-1-carbonyl)-1,2,3,4-tetrahydroquinolin-6-yl]methyl}-5-methyl-1,2-oxazole-3-carboxamide] | 45 nM |
| CCc1nc(C(=O)NCc2ccc3c(c2)CCCN3C(=O)c2cccc(Cl)c2)co1 [Example 23, N-{[1-(3-chlorobenzene-1-carbonyl)-1,2,3,4-tetrahydroquinolin-6-yl]methyl}-2-ethyl-1,3-oxazole-4-carboxamide] | 77.6 nM |
| CCn1ccc(C(=O)NCc2ccc3c(c2)CCCN3C(=O)c2cccc(Cl)c2)n1 [Example 24] | 99.8 nM |
